Assay results taken from paper PMC9918889, “Alkaloids and Styryl lactones from Goniothalamus ridleyi King and Their α-Glucosidase Inhibitory Activity” (Molecules, 2023).
Values after ≈ are worked out from the molar mass of the structure shown.

How the values were obtained:
Plasmodium falciparum = system: Plasmodium falciparum; parameters: method as in PMID 19573585; settings: cited from earlier work
HCT116 = system: HCT116; parameters: method as in PMID 31918304; settings: colon cancer cell line HCT116; read-out: IC50, cytotoxicity against HCT116; cited from earlier work
α-glucosidase = test: colorimetric α-glucosidase inhibitory assay; format: biochemical; settings: for %Inhibition at 250 µg/mL: sample at 250 µg/mL; for IC50: substrate p-nitrophenyl α-D-glucoside, 37 °C
Method: The previously reported approach was used to perform a colorimetric α-glucosidase assay. Briefly, the tested samples (50 µL) were combined with 50 µL of the α-glucosidase enzyme solution (0.05 U/mL) and preincubated at 37 °C for 5 min. The substrate (50 µL, c 1 mM), p-nitrophenyl α-D-glucoside, was added and incubated at 37 °C for 30 min. Then, 50 µL of Na2CO3 (0.3 M) was added. The absorption of the mixture was measured at 405 nm.

For CC(=O)O[C@H]1[C@H]2OC(=O)C=C[C@@H]2O[C@H]1c1ccccc1 [(+)-3-Acetylaltholactone], the “IC50, antiplasmodial activity” value (Plasmodium falciparum) is given as 2.6 µg/mL (≈ 9.48 µM).

For O=C1C=CCC(/C=C\c2ccccc2)O1 (stereo not shown) [(Z)-6-styryl-5,6-dihydro-2-pyranone], the IC50 (HCT116) is listed as 22.2 µM.

For C[C@H]1O[C@H](O[C@H]2[C@H](O)[C@@H](O)[C@@H](O[C@H]3[C@H](O)[C@@H](O)C(O)O[C@@H]3CO)O[C@@H]2CO)[C@H](O)[C@@H](O)[C@@H]1N[C@H]1C=C(CO)[C@@H](O)[C@H](O)[C@H]1O (stereo partly shown) [Acarbose, reference compound], the “%Inhibition at 250 µg/mL” value (α-glucosidase) was 88.1%.

In the case of COc1cccc2c1cc1c3c(cc4c(c32)OC2Oc3c(cc5c6c(cc7ccccc7c36)NC5=O)OC2O4)C(=O)N1 (stereo not shown) [Compound 1, Gonioridleylactam], the melting point is reported as 296 to 298 °C, the “%Inhibition at 250 µg/mL” value (α-glucosidase) is reported as 99.6% and the IC50 (α-glucosidase) is reported as 138.9 ± 0.9 µM.

With Cn1cc(CO)c2c1C(=O)c1ccccc1C2=O [Compound 2, 3-hydroxymethyl-1-methyl-1H-benz[f]indole-4,9-dione] the “%Inhibition at 250 µg/mL” value (α-glucosidase) was 99.3%.

In the case of Cn1cc(C(=O)O)c2c1C(=O)c1ccccc1C2=O [Compound 3, goniochelienic acid B], the “%Inhibition at 250 µg/mL” value (α-glucosidase) is reported as 99.5%.

In the case of C[C@@H]1C2=C(NC(=O)[C@@H]1O)C(=O)c1ccccc1C2=O [Compound 4, griffithazanone A], the “%Inhibition at 250 µg/mL” value (α-glucosidase) is reported as 98.0%.

For O=C1C=CC(=CC=Cc2ccccc2)O1 [Compound 7, 5-(3-phenyl-2-propenylidene)-2(5H)-furanone], the “%Inhibition at 250 µg/mL” value (α-glucosidase) was 98.6% and the IC50 (α-glucosidase) was 1.25 ± 0.4 µM.

For O=C1C=C[C@@H](O)[C@@H](/C=C/c2ccccc2)O1 [Compound 9, (−)-5-hydroxygoniothalamin], the “%Inhibition at 250 µg/mL” value (α-glucosidase) was 99.8%.

For (−)-nordicentrine, the “IC50, antiplasmodial activity” value (Plasmodium falciparum) is given as 0.3 µg/mL.
